According to EP0946545B1, “NOVEL CARBOXY SUBSTITUTED CYCLIC CARBOXAMIDE DERIVATIVES” (Aventis Pharmaceuticals Inc., priority 1996, dated 1998):
pIC50: −log10 of the molar value. Where a name gives a salt, the structure may show the parent alone. Read-outs that look alike come from different tables or passages of the source.

Tests used:
NK1 receptor = biological target: T1, NK1 receptor (Cavia porcellus, UniProt P30547); assay: Antagonism of iodinated tachykinin binding to NK1 receptors (Example A); set-up: species or system guinea pig
T1 construct: evaluated in guinea pig lungs (Keystone Biologicals, Cleveland, OH); tissue Keystone Biologicals, Cleveland, OH; host or cells: guinea pig lung membranes
T1 sequence (P30547 whole entry): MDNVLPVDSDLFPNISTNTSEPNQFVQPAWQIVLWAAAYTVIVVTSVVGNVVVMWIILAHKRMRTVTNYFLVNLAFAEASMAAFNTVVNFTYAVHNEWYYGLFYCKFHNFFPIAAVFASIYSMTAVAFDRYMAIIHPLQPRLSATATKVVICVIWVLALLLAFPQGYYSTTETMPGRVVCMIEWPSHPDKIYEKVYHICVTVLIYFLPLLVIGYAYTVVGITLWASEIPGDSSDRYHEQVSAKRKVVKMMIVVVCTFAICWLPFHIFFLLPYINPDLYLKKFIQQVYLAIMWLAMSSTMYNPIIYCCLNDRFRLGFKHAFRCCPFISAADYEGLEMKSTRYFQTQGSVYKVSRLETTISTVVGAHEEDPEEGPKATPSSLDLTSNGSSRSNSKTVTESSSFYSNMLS
Protocol: (§1) One skilled in the art can determine the NK1 receptor and NK2 receptor affinity in vitro as follows. The NK1 receptor affinity of tachykinin antagonists is evaluated in guinea pig lungs (Keystone Biologicals, Cleveland, OH) and affinity for the NK2 receptor is evaluated in HSKR-1 cells (which are mouse 3T3 fibroblasts expressing the human jejunal NK2 receptor). Tissues or cells are homogenized with a Polytron in 15 volumes of 50 mM Tris-HC1 buffer (pH 7.4, 4°C) and centrifuged. The pellet is resuspended in Tris-HCl buffer and is centrifuged; the pellet is washed twice by resuspension. The final pellet is resuspended at a concentration of 40 mg/ml for tissues and 20 mg/ml for cells in incubation buffer and remains at room temperature for at least 15 min prior to use. Receptor binding is initiated by addition of 250 ul membrane preparation in duplicate to 0.1 nM of the following radioligands: ^125I-Bolton Hunter Lys-3 labeled substance P and ^125iodohistidyl-1-neurokinin A; in a final volume of 500 ul of buffer containing 50 mM Tris-HCl (pH 7.4 at room temperature), 0.1% bovine serum albumin, 2 mM mangenese chloride, 40 ug/ml bacitracin, 4 µg/ml leupeptin and chymostatin, 10 µM thiorphan and various doses of the putative tachykinin antagonists. Incubations are performed at room temperature for 90 min (NK1 receptor assays) or 2 hr (NK2 receptor assay); binding is terminated by addition of 50 mM Tris-HCl buffer (pH 7.4, 4°C) and filtration under vacuum through GF/B filters presoaked with 0.1% polyethyleneimine (NK1 receptor assays) or 0.5% bovine serum albumin (NK2 receptor assay). Filter bound radioactivity is quantitated in a gamma counter. Nonspecific binding is defined as binding in the presence of 1 µM substance P or neurokinin A. Specific binding is calculated by subtracting nonspecific binding from total binding. Competition of iodinated SP or NKA binding by test compounds or standards is expressed as a percentage of this maximum binding. IC50 values (concentration required to inhibit 50% of receptor binding) are generated for each of the test compounds by nonlinear regression using an iterative curve fitting program (GraphPAD Inplot, San Diego, CA).
(§2) Tackykinin receptor binding (IC50 values) for representative compounds of the present invention is found in Table 1. The values in Table 1 were determined by the method of present Example A and represent the mean of several experiments, except where noted. […]

[1] = biological target: T2, human jejunal NK2 receptor (Homo sapiens, UniProt P21452); assay: Antagonism of iodinated tachykinin binding to NK2 receptors (Example A)
T2 construct: expressed in transfected cells; host or cells: HSKR-1 cells (mouse 3T3 fibroblasts)
T2 sequence (P21452 1-398): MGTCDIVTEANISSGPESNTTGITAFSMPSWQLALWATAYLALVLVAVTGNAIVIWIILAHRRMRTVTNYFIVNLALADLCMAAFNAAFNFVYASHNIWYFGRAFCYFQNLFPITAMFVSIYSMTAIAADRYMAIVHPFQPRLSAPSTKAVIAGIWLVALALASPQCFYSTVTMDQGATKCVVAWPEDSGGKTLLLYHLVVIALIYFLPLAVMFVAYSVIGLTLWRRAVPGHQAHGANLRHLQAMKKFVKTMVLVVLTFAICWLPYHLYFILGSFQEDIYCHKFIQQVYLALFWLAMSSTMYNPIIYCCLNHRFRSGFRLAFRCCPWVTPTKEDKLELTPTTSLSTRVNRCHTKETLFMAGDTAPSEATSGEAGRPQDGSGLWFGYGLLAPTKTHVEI
Protocol: as §1, §2

[2] = read-out: Tachykinin Receptor Binding NK1 IC50, guinea pig lungs membranes, 0.1 nM 125I-Bolton Hunter Lys-3 labeled substance P, 90 min room temperature, mean of several experiments
[3] = read-out: Tachykinin Receptor Binding NK2 IC50, HSKR-1 cells (mouse 3T3 fibroblasts expressing the human jejunal NK2 receptor), 0.1 nM 125iodohistidyl-1-neurokinin A, 2 hr room temperature, mean of several experiments

Row | Compound | pIC50 (NK1 receptor; [2]) | pIC50 [1, 3] | pIC50 (NK1 receptor) | pIC50 [1]
1 | COc1cc(C(=O)N2CC[C@](CCN3CCC(C(=O)N4CCN(CC(=O)OCc5oc(=O)oc5C)CC4)(c4ccccc4)CC3)(c3ccc(Cl)c(Cl)c3)C2)cc(OC)c1OC [Example 38.2, (R)-1-(3,4,5-Trimethoxybenzoyl)-3-(2-(4-phenyl-4-((4-carbo(5-methyl-2-oxo-1,3-dioxol-4-yimethoxy)methylpiperazin-1-yl)carboxamido)piperidin-1-yl)ethyl)-3-(3,4-dichlorophenyl)pyrrolidine fumaric acid salt] | 8.11 | 8.37 | – | –
2 | COc1cc(C(=O)N2CC[C@](CCN3CCC(C(=O)N4CCOC(C(=O)O)C4)(c4ccccc4)CC3)(c3ccc(Cl)c(Cl)c3)C2)cc(OC)c1OC (stereo partly drawn) [Example 26.1, (R)-1-(3,4,5-Trimethoxybenzoyl)-3-(2-(4-phenyl-4-((2-carboxymorpholin-4-yl)carboxamido)piperidin-1-yl)ethyl)-3-(3,4-dichlorophenyl)pyrrolidine] | – | – | 8.00 | 8.24
3 | COc1cc(C(=O)N2CC[C@](CCN3CCC(C(=O)N4CCN(CC(=O)OCC(=O)N(C)CCN(C)C)CC4)(c4ccccc4)CC3)(c3ccc(Cl)c(Cl)c3)C2)cc(OC)c1OC [Example 37.2, (R)-1-(3,4,5-Trimethoxybenzoyl)-3-(2-(4-phenyl-4-((4-carbo(N-methyl-N-(2-dimethylaminoethyl))carboxamidomethoxy)methylpiperazin-1-yl)carboxamido)piperidin-1-yl)ethyl)-3-(3,4-dichlorophenyl)pyrrolidine fumaric acid salt] | 8.68 | 9.05 | – | –
4 | CCOC(=O)OCOC(=O)CN1CCN(C(=O)C2(c3ccccc3)CCN(CC[C@]3(c4ccc(Cl)c(Cl)c4)CCN(C(=O)c4cc(OC)c(OC)c(OC)c4)C3)CC2)CC1 [Example 31.2, (R)-1-(3,4,5-trimethoxybenzoyl)-3-(2-(4-phenyl-4-((4-carbo(ethoxycarbonyloxymethoxy)methylpiperazin-1-yl)carboxamido)piperidine)ethyl)-3-(3,4-dichlorophenyl)pyrrolidine fumaric acid salt] | 7.93 | 8.04 | – | –
5 | COc1cc(C(=O)N2CC[C@](CCN3CCC(C(=O)N4CCN(CC(=O)O)CC4)(c4ccccc4)CC3)(c3ccc(Cl)c(Cl)c3)C2)cc(OC)c1OC [Example 9.2, (R)-1-(3,4,5-trimethoxybenzoyl)-3-(2-(4-phenyl-4-((4-carboxymethylpiperazin-1-yl)carboxamido)piperidine)ethyl)-3-(3,4-dichlororophenyl)pyrrolidine hydrochloric acid salt] | – | – | 8.25 | 8.50
6 | COc1cc(C(=O)N2CC[C@](CCN3CCC(C(=O)N4CCC[C@H]4C(=O)O)(c4ccccc4)CC3)(c3ccc(Cl)c(Cl)c3)C2)cc(OC)c1OC [Example 15.2, (R)-1-(3,4,5-trimethoxybenzonyl)-3-(2-(4-phenyl-4-(((S)-2-carboxypyrrolidin-1-yl)carboxamido)piperidin-1-yl)ethyl)-3-(3,4-dichlorophenyl)pyrrolidine hydrochloric acid salt] | – | – | 7.85 | 7.76
7 | CCOC(=O)CN1CCN(C(=O)C2(c3ccccc3)CCN(CCC3(c4ccc(F)c(F)c4)CCN(C(=O)c4cc(OC)c(OC)c(OC)c4)C3)CC2)CC1 (stereo not drawn) [Example 23.8, 1-(3,4,5-trimethoxvbenzoyl)-3-(2-(4-phenyl-4-((4-carboethoxymethylpiperazin-1-yl)carboxamido)piperidin-1-yl)ethyl)-3-(3,4-difluorophenyl)pyrrolidine hydrochloric acid salt] | – | – | 8.08 | 7.93
8 | COc1cc(C(=O)N2CC[C@](CCN3CCC(C(=O)N4CCN(CCCC(=O)O)CC4)(c4ccccc4)CC3)(c3ccc(Cl)c(Cl)c3)C2)cc(OC)c1OC [Example 30.2, (R)-1-(3,4,5-trimethoxybenzoyl)-3-(2-(4-phenyl-4-((4-carboxypropylpiperazin-1-yl)carboxamido)piperidine)ethyl)-3-(3,4-dichlorophenyl)pyrrolidine hydrochloric acid salt] | – | – | 8.47 | 8.44
9 | COc1cc(C(=O)N2CC[C@@](CCN3CCC(C(=O)N4CCN(CC(=O)O)CC4)(c4ccccc4)CC3)(c3ccc(Cl)c(Cl)c3)C2)cc(OC)c1OC [Example 13.3, (S)-1-(3,4,5-trimethoxybenzoyl)-3-(2-(4-phenyl-4-((4-carboxymethylpiperazin-l-yl)carboxamido)piperidine)ethyl)-3-(3,4-dichlorophenyl)pyrrolidine hydrochloric acid salt] | – | – | 8.25 | 8.50
10 | CCCC(=O)OCOC(=O)CN1CCN(C(=O)C2(c3ccccc3)CCN(CC[C@]3(c4ccc(Cl)c(Cl)c4)CCN(C(=O)c4cc(OC)c(OC)c(OC)c4)C3)CC2)CC1 [Example 35.2, (R)-1-(3,4,5-trimethoxybenzoyl)-3-(2-(4-phenyl-4-((4-carbo(propylcarbonyloxymethoxy)methylpiperazin-1 yl)carboxamido)piperidine)ethyl)-3-(3,4-dichlorophenyl)pyrrolidine fumaric acid salt] | 7.83 | 7.93 | – | –
11 | COC(=O)C1CCCN1C(=O)C1(c2ccccc2)CCN(CCC2(c3ccc(Cl)c(Cl)c3)CCN(C(=O)c3cc(OC)c(OC)c(OC)c3)C2)CC1 [Example 14.1, (R)-1-(3,4,5-Trimethoxybenzoyl)-3-(2-(4-phenyl-4-(((S)-2-carbomethoxypyrrolidin-1-yl)carboxamido)piperidin-1-yl)ethyl)-3-(3,4-dichlorophenyl)pyrrolidine] | – | – | 8.36 | 8.35
12 | COc1cc(C(=O)N2CC[C@](CCN3CCC(C(=O)N4CCN(CC(=O)OCC(=O)N(CCO)CCO)CC4)(c4ccccc4)CC3)(c3ccc(Cl)c(Cl)c3)C2)cc(OC)c1OC [Example 36.1, (R)-1-(3,4,5-Trimethoxybenzoyl)-3-(2-(4-phenyl-4-((4-carbo(N,N-di-(2-hydroxyethyl)carboxamidomethoxy)methylpiperazin-1-yl)carboxamido)piperidin-1-yl)ethyl)-3-(3,4-dichlorophenyl)pyrrolidine] | 8.57 | 8.63 | – | –
13 | CCOC(=O)C1CN(C(=O)C2(c3ccccc3)CCN(CC[C@]3(c4ccc(Cl)c(Cl)c4)CCN(C(=O)c4cc(OC)c(OC)c(OC)c4)C3)CC2)CCO1 (stereo partly drawn) [Example 25.2, (R)-1-(3,4,5-trimethoxybenzoyl)-3-(2-(4-phenyl-4-((2-carboethoxymorpholin-4-yl)carboxamido)piperidin-1-yl)ethyl)-3-(3,4-dichlorophenyl)pyrrolidine fumaric acid salt] | – | – | 7.84 | 8.19
14 | CCOC(=O)CN1CCN(C(=O)C2(c3cccnc3)CCN(CC[C@]3(c4ccc(Cl)c(Cl)c4)CCN(C(=O)c4cc(OC)c(OC)c(OC)c4)C3)CC2)CC1 [Example 5.5, (R)-1-(3,4,5-trimethoxybenzoyl)-3-(2-(4-(pyrid-3-yl)-4-((4-carboethoxymethylpiperazin-1-yl)carboxamido)piperidin-1-yl)ethyl)-3-(3,4-dichlorophenyl)pyrrolidine hydrochloric acid salt] | – | – | 8.20 | 8.60
15 | CCOC(=O)CN1CCN(C(=O)C2(c3ccccc3)CCN(CC[C@]3(c4ccc(Cl)c(Cl)c4)CCN(C(=O)c4cc(-n5cnnn5)ccc4OC)C3)CC2)CC1 [Example 10.4, (R)-1-(2-methoxy-5-(1H-tetrazol-1-yl)benzoyl)-3-(2-(4-phenyl-4-((4-carboethoxymethylpiperazin-1-yl)carboxamido)piperidine)ethyl)-3-(3,4-dichlorophenyl)pyrrolidine hydrochloric acid salt] | – | – | 8.07 | 7.29
